Structures can show the parent of a compound that is named as a salt. Where two headings read alike, the source gives them in different places.
Legend:
hairless mice [1] = assay: TEWL (water permeability) 4 hours after application to acetone-treated skin; type: in vivo; conditions: for stratum corneum water permeability (TEWL), increase vs vehicle in words: statistical significance vs vehicle, concentrations and skin treatment as in Tables 2-7
[2] = topical; literature (J. Clin. Invest. 88, 1991); cited from earlier work
intact pig skin = assay: TEWL of intact pig skin under occlusion (Hilltop chamber), testosterone formulations; type: in vivo; conditions: for barrier integrity / barrier permeability (TEWL) vs occlusion and TS controls, in words: Tables 9-11; for 6 h Post TEWL (x baseline): 6 h after removal of formulation
[3] = Transdermal LHRH delivery: plasma level by radioimmunoassay, ratio to vehicle; conditions: ratio of LHRH plasma levels (RIA) after tested delivery compound(s) to vehicle; acid lipase vs its vehicle MES
hairless mice [4] = assay: Epidermal barrier disruption: marker (propylene glycol, cyclophenol) profile in stratum corneum by IR and tape-stripping; type: in vivo
Method: To determine the epidermal barrier disruption by application of fluindostatin, an animal testing was conducted in the manner as follows: Hairless mice (two animals, B and C) were topically pretreated with fluindostatin for 7 days. In a control group, animals (two) were only treated with a vehicle. […] The parameters for the vehicle in all of the experiments herein are as follows: […] N=14. After treatment, the skin surface was cleaned and stratum corneum allowed to recover to its normal state of hydration for 2 hours. An IR spectrum of the hydrophilic marker compound, propylene glycol, was recorded, and a single tape-stripping was conducted at the treated skin site. Another spectrum was recorded followed by the removal of a. second tape strip. The same sequence was repeated 10 times. FIGS. 4A, 4B show the test results. […] In essentially the same manner, cyclophenol (CP) was used as a.lipophilic marker. Tape-stripping was repeated 7 times after application of fluindostatin.

hairless mouse = assay: TEWL recovery after oleic acid treatment; type: in vivo; conditions: 30 μl of 1.5% fluindostatin or 0.25% TOFA in propylene glycol/ethanol 7:3, two hours after 5% oleic acid (FIG. 6A, 6B)
Method: A female hairless mouse, aged 8 weeks, was treated with oleic acid. After oleic acid treatment, fluindostatin and/or 5-tetradecyloxy-2-furancarboxylic acid (TOFA) was applied to the animal.
TEWL (trans-epidermal water loss) was measured before and after treatment at convenient time intervals when the animal was alert. An Evaporimeter (ServoMed) was used.
First, TEWL of the left (LHS) and right (RHS) dorsal sides was measured. Then, the animal was anesthetized by 0.25 ml chloral hydrate (CH) IP injection. At t=0, an aliquot of 30 μl oleic acid solution (5% in propylene glycol/ethanol 7:3 (v/v)) was applied directly to both sides of the animal (˜1.5×3 cm) using a Hamilton syringe. […] TEWL was measured thereafter every 2 or 3 hours.

[5] = solitary agent, Conc 1.0 %, acetone-treated skin
[6] = statistical significance vs vehicle, concentrations and skin treatment as in Tables 2-7
[7] = solitary agent, Conc 0.5 %, acetone-treated skin
[8] = lidocaine, solitary enhancer Conc 0.5 %, acetone-treated skin

N[C@@H](CCl)C(=O)O [β-chloroalanine, β-Chloroalanine]
TEWL (T = 4 hours) (hairless mice [1]; [5]): 263 ± 35 | stratum corneum water permeability (TEWL), increase vs vehicle in words (hairless mice [1]): did not increase stratum corneum water permeability | lidocaine delivery, increase vs vehicle in words [6]: significant increase | recovery of barrier function, assessed as transepidermal water loss [2]: slow barrier recovery

N-Palmitoyl-DL-dihydroxysphingosine [N-palmitoyl-DL-hydroxysphingosine]
TEWL (T = 4 hours) (hairless mice [1]; [7]): 793 ± 124 | stratum corneum water permeability (TEWL), increase vs vehicle in words (hairless mice [1]): very significantly increased water permeability | Plasma Conc. (% dose/ml plasma) (mouse, in vivo): 0.21 ± 0.03 % dose/ml plasma | Total Body Conc. (%) (mouse, in vivo): 6.88 ± 0.69% | lidocaine delivery, increase vs vehicle in words (mouse, in vivo): significantly increased it

CC(C)CCC[C@@H](C)[C@H]1CC[C@H]2[C@@H]3CC=C4C[C@@H](OS(=O)(=O)O)CC[C@]4(C)[C@H]3CC[C@]12C [cholesterol sulfate, Cholesterol sulfate]
TEWL (T = 4 hours) (hairless mice [1]; [5]): 508 ± 169 | stratum corneum water permeability (TEWL), increase vs vehicle in words (hairless mice [1]): significantly increased it | lidocaine delivery, increase vs vehicle in words [6]: statistically very significant increase in lidocaine delivery

O[C@H]1[C@H](O)[C@@H](O)[C@@H]2O[C@@H]2[C@@H]1O [conduritol-β-epoxide, Conduritol-β-epoxide]
water permeability (TEWL), increase vs vehicle in words (hairless mice [1]; frequently applied to intact skin): statistically significant increased lidocaine delivery and water permeability | TEWL (T = 4 hours) (hairless mice [1]; solitary agent, Conc 4.0 %, intact skin, TID, total 7-8 doses): 184 ± 39 | TEWL (T = 4 hours) (hairless mice [1]; solitary agent, Conc 4.0 %, single application, acetone-treated skin): 253 ± 33 | stratum corneum water permeability (TEWL), increase vs vehicle in words (hairless mice [1]): failing even nearly significantly to increase either water permeability or lidocaine delivery

Gramicidin D [GD]
barrier integrity / barrier permeability (TEWL) vs occlusion and TS controls, in words (intact pig skin; intact pig skin): increase barrier permeability to TS to a degree significantly superior to that provided by either control at all time points

CCN(CC)CCCC(C)Nc1ccnc2cc(Cl)ccc12 (stereo not shown) [CQ, Chloroquine]
barrier integrity / barrier permeability (TEWL) vs occlusion and TS controls, in words (intact pig skin; intact pig skin): increase barrier permeability to TS to a degree significantly superior to that provided by either control at all time points

CC[C@H](C)C(=O)O[C@H]1CCC=C2C=C[C@H](C)[C@H](CC[C@@H]3C[C@@H](O)CC(=O)O3)[C@H]21 [MEV, Mevastatin]
24 h TEWL (x baseline) (intact pig skin; Table 9, 0.08 weight %, 24 h after first administration): 1.75 x baseline | 48 h TEWL (x baseline) (intact pig skin; Table 9, 0.08 weight %): 2.39 x baseline | 72 h TEWL (x baseline) (intact pig skin; Table 9, 0.08 weight %): 3.72 x baseline | 24 h TEWL (x baseline) (intact pig skin; Table 9, 0.12 weight %, 24 h): 1.79 x baseline | 48 h TEWL (x baseline) (intact pig skin; Table 9, 0.12 weight %): 2.75 x baseline | 72 h TEWL (x baseline) (intact pig skin; Table 9, 0.12 weight %): 3.72 x baseline | 6 h Post TEWL (x baseline) (intact pig skin; Table 10, 0.006 weight %): 1.24 ± 0.29 x baseline | 24 h TEWL (x baseline) (intact pig skin; Table 10, 0.006 weight %, 24 h): 1.55 ± 0.29 x baseline | 48 h TEWL (x baseline) (intact pig skin; Table 10, 0.006 weight %): 2.13 ± 0.38 x baseline | 72 h TEWL (x baseline) (intact pig skin; Table 10, 0.006 weight %): 1.75 ± 0.21 x baseline | 6 h Post TEWL (x baseline) (intact pig skin; Table 10, 0.10 weight %): 2.25 ± 0.8 x baseline | 24 h TEWL (x baseline) (intact pig skin; Table 10, 0.10 weight %, 24 h): 1.93 ± 0.58 x baseline | 48 h TEWL (x baseline) (intact pig skin; Table 10, 0.10 weight %): 3.77 ± 1.42 x baseline | 72 h TEWL (x baseline) (intact pig skin; Table 10, 0.10 weight %): 3.04 ± 0.86 x baseline | 6 h Post TEWL (x baseline) (intact pig skin; Table 10, 0.25 weight %): 1.90 ± 0.28 x baseline | 24 h TEWL (x baseline) (intact pig skin; Table 10, 0.25 weight %, 24 h): 1.47 ± 0.18 x baseline | 48 h TEWL (x baseline) (intact pig skin; Table 10, 0.25 weight %): 2.66 ± 1.00 x baseline | 72 h TEWL (x baseline) (intact pig skin; Table 10, 0.25 weight %): 2.43 ± 0.51 x baseline | barrier integrity / barrier permeability (TEWL) vs occlusion and TS controls, in words (intact pig skin; intact pig skin): decreased barrier integrity to a substantial degree over that provided by either control | capacity to deliver testosterone (TS) vs both controls, in words (intact pig skin; intact pig skin, said to be shown in Table 11): superior capacity of MEV to deliver testosterone (TS) over that of both controls

CCCC[C@@H](C)[C@@H](OC(=O)C[C@@H](CC(=O)O)C(=O)O)[C@H](C[C@@H](C)C[C@H](O)CCCC[C@@H](O)C[C@H](O)[C@H](C)N)OC(=O)C[C@@H](CC(=O)O)C(=O)O [fumonisin B1, Fumonisin B1]
TEWL (T = 4 hours) (hairless mice [1]; [7]): 440 ± 149 | Plasma Conc. (% dose/ml plasma) [8]: 0.24 ± 0.03 % dose/ml plasma | Total Body Conc. (%) [8]: 14.58 ± 0.73% | lidocaine delivery, increase vs vehicle in words [6]: very significantly increased lidocaine delivery | LHRH Delivery Ratio vs. Vehicle [3]: 3.8

Bromophenacylbromide
water permeability (TEWL), increase vs vehicle in words (hairless mice [1]; solitary agent on intact skin): but not water permeability | TEWL (T = 4 hours) (hairless mice [1]; solitary agent, Conc 0.15 %, intact skin): 98 ± 47 | TEWL (T = 4 hours) (hairless mice [1]; solitary agent, Conc 0.2 %, acetone-treated (prepermeabilized) skin): 690 ± 177 | stratum corneum water permeability (TEWL), increase vs vehicle in words (hairless mice [1]): very significant increases of both lidocaine delivery and water permeability

CCCCCCCC/C=C\CCCCCCCC(=O)O[C@H]1CC[C@@]2(C)C(=CC[C@H]3[C@@H]4CC[C@H]([C@H](C)CCCC(C)C)[C@@]4(C)CC[C@@H]32)C1 [CHO, Cholesterol Oleate]
24 h TEWL (x baseline) (intact pig skin; Table 9, 0.05 weight %, 24 h): 1.53 x baseline | 48 h TEWL (x baseline) (intact pig skin; Table 9, 0.05 weight %): 2.16 x baseline | 72 h TEWL (x baseline) (intact pig skin; Table 9, 0.05 weight %): 2.71 x baseline | barrier integrity / barrier permeability (TEWL) vs occlusion and TS controls, in words (intact pig skin; intact pig skin): comparable to or superior to both controls

CC(C)n1c(/C=C/C(O)CC(O)CC(=O)O)c(-c2ccc(F)cc2)c2ccccc21 (stereo not shown) [Fluindostatin]
disruption of the stratum corneum barrier (both marker data sets) (hairless mice [4]; PG and CP markers): caused significant disruption of the stratum corneum barrier | cyclophenol (lipophilic marker) concentration profile in stratum corneum (hairless mice [4]; tape-stripping repeated 7 times, vs vehicle control (FIG. 5A, 5B)): a lower, constant concentration level of CP | propylene glycol (hydrophilic marker) concentration profile in stratum corneum (hairless mice [4]; topical pretreatment 7 days, IR spectra over 10 tape-strippings, vs vehicle control (FIG. 4A, 4B)): lower absolute levels of PG in the stratum corneum, and a constant concentration level of PG | recovery of the barrier (TEWL) after oleic acid disruption (hairless mouse): delay the recovery of the barrier | TEWL (T = 4 hours) (hairless mice [1]; 4 h): 431 ± 46 | stratum corneum water permeability (TEWL), increase vs vehicle in words (hairless mice [1]): significantly increased it

CCCCCCCC/C=C\CCCCCCCC(=O)NCCO [N-oleoylethanolamine, N-Oleoylethanolamine]
TEWL (T = 4 hours) (hairless mice [1]; [7]): 720 ± 229 | stratum corneum water permeability (TEWL), increase vs vehicle in words (hairless mice [1]): very significantly increased water permeability | 24 h TEWL (x baseline) (intact pig skin; Table 9, 0.03 weight %, 24 h): 1.46 x baseline | 48 h TEWL (x baseline) (intact pig skin; Table 9, 0.03 weight %): 2.25 x baseline | 72 h TEWL (x baseline) (intact pig skin; Table 9, 0.03 weight %): 3.15 x baseline | 24 h TEWL (x baseline) (intact pig skin; Table 9, 0.10 weight %, 24 h): 1.67 x baseline | 48 h TEWL (x baseline) (intact pig skin; Table 9, 0.10 weight %): 2.45 x baseline | 72 h TEWL (x baseline) (intact pig skin; Table 9, 0.10 weight %): 3.68 x baseline | barrier integrity / barrier permeability (TEWL) vs occlusion and TS controls, in words (intact pig skin; intact pig skin): increases barrier permeability in a dose response manner

CCCCCCCCCCCCCCOc1ccc(C(=O)O)o1 [TOFA, 5-tetradecyloxy-2-furancarboxylic acid]
recovery of the barrier (TEWL) after oleic acid disruption (hairless mouse): delay the recovery of the barrier | TEWL (T = 4 hours) (hairless mice [1]; [5]): 520 ± 31 | stratum corneum water permeability (TEWL), increase vs vehicle in words (hairless mice [1]): very significantly increased water permeability

CC[C@H](C)C(=O)O[C@H]1C[C@@H](C)C=C2C=C[C@H](C)[C@H](CC[C@@H]3C[C@@H](O)CC(=O)O3)[C@H]21 [lovastatin, Lovastatin]
recovery of barrier function, assessed as transepidermal water loss [2]: impair the recovery of barrier function

— US6562606B1, “Methods and compositions for disrupting the epithelial barrier function” (The Regents of the University of California, priority 1993, dated 2003)
